Target: T1, α1L Receptor (Oryctolagus cuniculus, UniProt O02824)
T1 construct: A single rabbit aorta was cleaned of connective tissue, cut into rings; from tissue; host or cells: rabbit aorta rings
T1 sequence (O02824 1-466): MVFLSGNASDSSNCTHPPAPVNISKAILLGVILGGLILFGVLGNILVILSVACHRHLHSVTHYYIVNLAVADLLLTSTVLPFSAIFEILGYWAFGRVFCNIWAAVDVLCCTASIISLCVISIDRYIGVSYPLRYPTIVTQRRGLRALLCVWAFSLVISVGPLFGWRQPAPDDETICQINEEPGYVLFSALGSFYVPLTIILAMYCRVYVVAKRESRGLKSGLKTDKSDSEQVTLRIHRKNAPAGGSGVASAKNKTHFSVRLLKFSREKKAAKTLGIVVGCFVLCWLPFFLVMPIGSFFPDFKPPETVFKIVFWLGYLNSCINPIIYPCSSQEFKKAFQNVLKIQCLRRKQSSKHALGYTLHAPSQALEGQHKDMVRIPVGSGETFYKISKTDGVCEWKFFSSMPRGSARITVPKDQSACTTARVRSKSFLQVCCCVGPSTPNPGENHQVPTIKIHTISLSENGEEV
Test: Contractile responses of rabbit aorta (methoxamine-induced), antagonist pA2
Conditions: rabbit aorta rings, methoxamine as agonist, 60 minutes with compound, Schild analysis; read-out: pA2 v α1L (converted)
Procedure: Contractile Responses of Rabbit Aorta (α1L Receptor)
A single rabbit aorta was cleaned of connective tissue, cut into rings ˜3 mm in length, then denuded of […] by rubbing very gently with a probe. The lengths of tissue are then mounted in the 5 mL organ baths, which contain the modified Krebs of the following composition (mM): NaCl (119), KCl (4.7), CaCl2 (2.5), KH2PO4 (1.2), MgSO4 (1.2), NaHCO3 (25), glucose (11), and gassed with 95% O2/5% CO2. The tissues are placed under ˜1.5 g tension, and are left to equilibrate for ˜60 minutes on a pump speed of ˜5 mL\minute, adjusting the tension to 1-1.5 g if necessary after 15 and 45 minutes. A 1M stock solution (1×10^−3M bath conc.) of methoxamine in water was made and 1:10 dilutions made using the same diluent. A sensitising dose of 120 mM KCl (bath concentration) was added to each bath. After the maximum response had been reached (usually about 6-8 minutes), the tissues are washed with Krebs solution for 60 minutes, pump speed at ˜2.97 mL/min. […]
The data was captured on ADA analysis in-vitro software, which expresses the readings as a % of the maximum response of the control curve, draws control and test compound dose response curves, and calculates a EC50 and then dose ratio (DR), the ratio between control and treatment curve EC50, for each treatment. […]

- Kb: 0.1 nM
Structure (SMILES): COc1cc(C2CC2)c2c(=O)[nH]c(N3CCc4nc(CN5CCOCC5)ccc4C3)nc2c1 [Example 11, 5-Cyclopropyl-7-methoxy-2-(2-morpholin-4-ylmethyl-7,8-dihydro[1,6]-naphthyridin-6(5H)-yl)-4(3H)-quinazolinone]
